# Reference: paper PMC12210912, “Pharmacologic properties and inhibitory activity of 6-azasteroids against Mycobacterium leprae in vivo and in vitro” (Microbiology Spectrum, 2025)
# What was measured:
# in vivo = details: female, Balb/c, mouse, po, 100 mg/kg
# Experimental: Compound 5 was solubilized in 5% DMSO in 10% Solutol with 100 mM citrate buffer (pH 3) and was tested in Balb/c female mice, approximately 8 weeks old and 20 g, at 100 mg/kg with or without 10 mg/kg rifampicin. Mice (n = 3 per group) were treated PO with drug or vehicle once daily at 8 AM. Body weights were measured daily prior to dosing. […] On day 5, mice were sacrificed at 6 h post-dose, and whole blood and plasma were extracted for complete blood count and blood chemistry profiling on an Element HT5 system (Heska, USA) and plasma drug concentration analysis was performed by LC-MS (Sciex API 4500 Triple Quad, Shimadzu LC-30A). Calibration curves were prepared as described above for in vivo metabolism and pharmacokinetics.
# CYP3A4 = target: T1, CYP3A4 (Homo sapiens, UniProt P08684); test: inhibition of CYP3A4 enzymatic activity in human liver microsomes; format: in vitro ADME
# T1 construct: Human liver microsomes (150 donors pooled, male & female, Corning, Cat# 452117) were used as a source of CYP3A4; tissue Corning 452117; host or cells: pooled human liver microsomes (150 donors)
# T1 sequence (P08684 whole entry): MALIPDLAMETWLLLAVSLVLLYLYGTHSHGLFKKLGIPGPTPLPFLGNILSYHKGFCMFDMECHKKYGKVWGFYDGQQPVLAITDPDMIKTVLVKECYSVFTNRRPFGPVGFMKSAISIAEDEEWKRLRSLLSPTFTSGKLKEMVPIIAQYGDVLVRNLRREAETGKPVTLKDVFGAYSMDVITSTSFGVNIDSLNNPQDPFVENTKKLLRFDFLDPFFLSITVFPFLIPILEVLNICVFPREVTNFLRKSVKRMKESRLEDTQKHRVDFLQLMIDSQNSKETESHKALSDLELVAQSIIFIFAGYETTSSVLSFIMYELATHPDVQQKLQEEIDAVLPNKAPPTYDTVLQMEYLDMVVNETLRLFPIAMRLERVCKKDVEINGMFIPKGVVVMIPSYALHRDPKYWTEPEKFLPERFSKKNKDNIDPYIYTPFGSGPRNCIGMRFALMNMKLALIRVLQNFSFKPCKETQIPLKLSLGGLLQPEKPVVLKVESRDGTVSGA
# Experimental: Inhibition of CYP3A4 enzymatic activity was carried out following a standard protocol by Pharmaron, Inc. Human liver microsomes (150 donors pooled, male & female, Corning, Cat# 452117) were used as a source of CYP3A4. The final concentration of human liver microsomes was 0.2 mg/mL. CYP3A4 was tested with testosterone (stock: 10 mM, final: 50 µM) or midazolam (stock: 1 mM, final: 5 µM) as substrate. Aliquots (1 µL) of test compounds (20 µM final concentration), positive control compound ketoconazole (20 µM final concentration), or buffer blank were transferred to a multi-well plate. The reaction was initiated with the addition of 20 µL of 10 mM NADPH solution to provide a final concentration of 1 mM in a 200 µL total volume and carried out at 37°C. The reaction was stopped by the addition of 1.5 volumes of methanol with incubation solution (100 nM alprazolam, 200 nM imipramine, 200 nM labetalol, and 2 µM ketoprofen) at designated time points (5 min midazolam-mediated CYP3A4; 10 min testosterone-mediated CYP3A4). The plate was centrifuged at 3,220 × g for 40 min to precipitate protein. Aliquots of 100 µL of the supernatant were diluted with 100 µL ultra-pure H2O, and the mixture was used for LC-MS/MS analysis to determine concentration of product (hydroxymidazolam or hydroxytestosterone) formed. The % inhibition was calculated by comparison with no inhibitor control. All experiments were performed in duplicate.
# Glucocorticoid Receptor = target: T2, Glucocorticoid Receptor (Homo sapiens, UniProt P04150); test: glucocorticoid receptor radioligand binding inhibition; details: [3H]dexamethasone binding, IM-9 cells cytosol
# T2 construct: (i) GR (human) IM-9 cells (cytosol); host or cells: IM-9 cells (cytosol)
# T2 sequence (P04150 1-777): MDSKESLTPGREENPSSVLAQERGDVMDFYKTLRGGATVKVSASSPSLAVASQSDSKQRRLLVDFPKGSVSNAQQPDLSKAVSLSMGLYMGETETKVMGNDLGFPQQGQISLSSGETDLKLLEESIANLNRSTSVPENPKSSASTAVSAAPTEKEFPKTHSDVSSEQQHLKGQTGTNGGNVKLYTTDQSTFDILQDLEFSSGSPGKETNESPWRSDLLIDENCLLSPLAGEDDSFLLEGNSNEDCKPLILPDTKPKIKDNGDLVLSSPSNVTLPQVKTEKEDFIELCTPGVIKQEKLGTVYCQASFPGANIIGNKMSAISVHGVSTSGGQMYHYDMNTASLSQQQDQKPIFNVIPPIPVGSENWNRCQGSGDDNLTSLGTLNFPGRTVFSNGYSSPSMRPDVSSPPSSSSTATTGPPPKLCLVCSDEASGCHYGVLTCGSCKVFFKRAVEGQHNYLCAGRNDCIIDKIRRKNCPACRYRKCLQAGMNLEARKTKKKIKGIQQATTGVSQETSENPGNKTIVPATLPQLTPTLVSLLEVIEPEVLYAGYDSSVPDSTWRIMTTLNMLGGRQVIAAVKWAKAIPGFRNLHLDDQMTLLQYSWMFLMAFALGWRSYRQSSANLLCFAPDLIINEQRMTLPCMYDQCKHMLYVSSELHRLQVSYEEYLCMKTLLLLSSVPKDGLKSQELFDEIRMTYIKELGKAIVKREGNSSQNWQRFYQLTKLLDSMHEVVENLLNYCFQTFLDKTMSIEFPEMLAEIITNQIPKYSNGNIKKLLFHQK
# Experimental: Four nuclear receptors: glucocorticoid, androgen, LXRα, and LXRβ were assayed. Inhibition of agonist binding to each of the receptors was carried out following a standard protocol by Eurofins, Inc., USA. Compounds were tested at 10 µM. Compound binding was measured by scintillation counting and was calculated as a % inhibition of the binding of a radioactively labeled ligand specific for each target. Percent inhibition of control specific binding was expressed as
# 100−[(measured specific binding)/(control specific binding)∗100]
# where measured specific binding is the amount of radioactive ligand binding obtained in the presence of test compounds.
# (iii) LXRα (human) recombinant protein expressed in E. coli; agonist radioligand 20 nM [^3H] […] (iv) LXRβ (human) recombinant protein expressed in E. coli; agonist radioligand 20 nM [^3H]
# [1] = system: human type 1 5α-reductase; design: method as in PMID 8057283; details: cited from earlier work
# [2] = system: human type 2 5α-reductase; design: method as in PMID 8057283; details: cited from earlier work
# M. leprae 3β-HSD = system: M. leprae 3β-HSD; design: method as in PMID 34395315; details: cited from earlier work
# M. leprae = system: M. leprae; design: method as in PMID 34395315; details: cited from earlier work
Structure (SMILES),concentration at 6 h (in vivo),"% inhibition observed, Cyp3A4 Midazolam Isoform (CYP3A4; 20 µM, midazolam substrate)","% inhibition observed, Cyp3A4 Testosterone Isoform (CYP3A4; 20 µM, testosterone substrate)","inhibition at 5 min, 20 µM (CYP3A4; both sexes, probe midazolam (5 µM), midazolam substrate, read-out: % inhibition observed, Cyp3A4 Midazolam Isoform)","inhibition at 10 min, 20 µM (CYP3A4; both sexes, probe testosterone (50 µM), testosterone substrate, read-out: % inhibition observed, Cyp3A4 Testosterone Isoform)","% inhibition observed, Glucocorticoid Receptor (Glucocorticoid Receptor; 10 µM)","inhibition at 10 µM (Glucocorticoid Receptor; read-out: % inhibition observed, Glucocorticoid Receptor)",inhibition of human type 1 5α-reductase [1],inhibition of human type 2 5α-reductase [2],M. leprae 3β-HSD activity (cholestenone production in axenic medium) (M. leprae 3β-HSD),intracellular viability of M. leprae in vitro (M. leprae)
C[C@]12CCC3C(CNC4=CC(=O)CC[C@@]43C)C1CCC2C(=O)NC(c1ccc(F)cc1)c1ccc(F)cc1 (some centres unmarked) [Compound 5],292 ± 59 µM,strongly inhibits,strongly inhibits,79%,68%,moderate,46.4%,nanomolar inhibitor,nanomolar inhibitor,,
CC(C)(C)c1ccc(C(C)(C)C)c(NC(=O)C2CCC3C4CNC5=CC(=O)CC[C@]5(C)C4CC[C@]23C)c1 (some centres unmarked) [Compound 1],,,,,,,,,,inhibits M. leprae 3β-HSD activity,reduce the intracellular viability of M. leprae in vitro
